Results: US7803377B2, “Anti-DLL4 antibodies and methods using same” (Genentech, Inc., priority 2006, dated 2010)

Key:
[1] = biological target: T1, full length DLL4 (Homo sapiens, UniProt Q9NR61); assay: FACS analysis of transiently transfected 293 cells; format: binding; details: DLL4 transfected 293 cells; antibody 2 μg/ml
T1 construct: transiently transfected with vector, full length DLL4, Jag1 or DLL1; expressed in transfected cells; host or cells: 293 cells, transient

[2] = biological target: Jag1 (Homo sapiens, UniProt P78504); assay: FACS analysis of transiently transfected 293 cells; format: binding; design: transiently transfected with vector, full length DLL4, Jag1 or DLL1; expressed in transfected cells; host or cells: 293 cells, transient; details: Jag1 transfected 293 cells; antibody 2 μg/ml
Text: (§1) Expression of Jag1 and DLL1 was confirmed by the binding of recombinant rat Notch1-Fc (rrNotch1-Fc, middle panel) and recombinant rat Notch2-Fc (rrNotch2-Fc, bottom panel), respectively.

[3] = biological target: T2, DLL1 (Homo sapiens, UniProt O00548); assay: FACS analysis of transiently transfected 293 cells; format: binding; design: transiently transfected with vector, full length DLL4, Jag1 or DLL1; expressed in transfected cells; host or cells: 293 cells, transient; details: DLL1 transfected 293 cells; antibody 2 μg/ml
T2 sequence (O00548 18-723): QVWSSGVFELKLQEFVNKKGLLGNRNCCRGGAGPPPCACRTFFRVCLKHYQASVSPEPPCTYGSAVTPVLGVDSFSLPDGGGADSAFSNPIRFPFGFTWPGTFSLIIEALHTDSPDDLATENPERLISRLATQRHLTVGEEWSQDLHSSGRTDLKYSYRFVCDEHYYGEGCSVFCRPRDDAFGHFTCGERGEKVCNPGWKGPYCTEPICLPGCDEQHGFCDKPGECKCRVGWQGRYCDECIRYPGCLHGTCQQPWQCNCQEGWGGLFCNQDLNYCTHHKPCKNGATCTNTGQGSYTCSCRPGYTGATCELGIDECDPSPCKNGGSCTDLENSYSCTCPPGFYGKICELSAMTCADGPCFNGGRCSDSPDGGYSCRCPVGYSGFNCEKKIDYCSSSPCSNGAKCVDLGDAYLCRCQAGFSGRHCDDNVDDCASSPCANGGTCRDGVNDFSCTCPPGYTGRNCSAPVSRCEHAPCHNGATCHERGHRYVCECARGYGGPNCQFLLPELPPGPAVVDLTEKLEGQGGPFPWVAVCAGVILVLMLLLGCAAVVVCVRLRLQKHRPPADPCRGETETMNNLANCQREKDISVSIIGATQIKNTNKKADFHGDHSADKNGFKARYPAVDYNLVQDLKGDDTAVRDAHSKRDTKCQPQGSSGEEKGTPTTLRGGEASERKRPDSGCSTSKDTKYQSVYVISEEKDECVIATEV
Text: as §1

[4] = system: human ovarian cancer SK-OV-3 X1 cells; assay: Tumor model SK-OV-3X1; format: in vivo, mouse; details: 5 mg/kg, IP, twice weekly after establishment of the tumors
Description: (§2) Tumor models. Beige nude female mice of 8- to 10-week-old were used. To obtain subcutaneous tumors, mice were injected with 0.1 ml cell suspension containing 50% matrigel (BD Bioscience) into the right posterior flank. 5×10^6 human colon cancer HM7 cells, 10×10^6 human colon carcinoma Colo205 cells, 10×10^6 human lung carcinoma Calu6 cells, 10×10^6 human lung carcinoma MV-522 cells, 10×10^6 mouse leukemia WEHI-3 cells, 10×10^6 mouse lymphoma EL4 cells, 10×10^6 human ovarian cancer SK-OV-3 X1 cells, 10×06 mouse lung cancer LL2 cells, 10×10^6 leukemia/lymphoma EL4 cells, or 10×10^6 non-small lung cancer H1299 cells were injected into each mouse. For human melanoma MDA-MB-435 model, mice were injected into the mammary fat pad with 0.1 ml cell (5×10^6) suspension containing 50% matrigel. […] For the following tumor models, each test mouse received a subcutaneous tumor fragment (1 mm^3) implanted in the right flank: non-small lung cancer SKMES-1, human breast cancer MX-1, human colorectal cancer SW620 and human adenocarcinoma LS174T. The tumor growth was quantitated by caliper measurements. Tumor volume (mm^3) was determined by measuring the length (l) and width (w) and calculating the volume (V=lw2/2). 10 to 15 animals were included in each group. Statistical comparison of treatment groups was performed using two-tailed Student's t-test. […]

[5] = system: non-small lung cancer SKMES-1; assay: Tumor model SKMES-1; format: in vivo, mouse; details: 5 mg/kg, IP, twice weekly after establishment of the tumors
Description: as §2

[6] = system: HUVECs; assay: HUVEC fibrin gel bead assay; format: cell-based, human; details: anti-DLL4 antibody 5 μg/ml, DBZ 0.08 μM
Description: HUVEC fibrin gel bead assay. Details of the HUVEC fibrin gel bead assay have been described (Nakatsu, M. N. et al. Microvasc Res 66, 102-12 (2003)). Briefly, Cytodex™ 3 beads (Amersham Pharmacia Biotech) were coated with 350-400 HUVECs per bead. About 200 HUVEC-coated beads were imbedded in fibrin clot in one well of 12-well tissue culture plate. 8×10^4 SF cells were plated on top of the clot. Assays were terminated between day 7 and day 9 for immunostaining and imaging. In some experiments, HUVEC sprouts were visualized by staining with Biotin-anti-CD31 (clone WM59, eBioscience) and strepavidin-Cy3. For HUVEC nuclei staining, fibrin gels were fixed overnight in 2% paraformaldehyde (PFA), and stained with 4′,6-diamidino-2-phenylindole (DAPI, Sigma). For Ki67 staining, fibrin gels were treated with 10× trypsin-EDTA for 5 min to remove the top layer SF, neutralized with 10% FBS in PBS, and fixed overnight in 4% PFA. Fibrin gels were then blocked with 10% goat serum in PBST for 4 hr, incubated overnight with rabbit anti-mouse Ki67 (Ready-To-Use, clone Sp6, LabVision), followed by secondary detection with anti-rabbit IgG-Cy3 (Jackson ImmunoResearch). All overnight incubations were done at 4° C. […]

In the case of “YW26.82: affinity matured anti-DLL4 monoclonal antibody; HVR-H1/H2/H3 SEQ ID NO:1, 8, 9; HVR-L1/L2/L3 SEQ ID NO:10, 11, 18”, the “binding by FACS” value [1] is reported as “significant binding”, the “binding by FACS” value [2] is reported as “Significant binding was not detected” and the “binding by FACS” value [3] is reported as “Significant binding was not detected”. For the same substance, the “tumor growth, single agent” value [4] was “inhibited tumor growth alone”, the “tumor growth, single agent” value [5] was “inhibited tumor growth alone” and the “HUVEC sprouting (length and number of sprouts)” value ([6]; fibrin gel with co-cultured SF cells) was “markedly increased the length and number of sprouts”. The “Ki67 staining, HUVEC proliferation” value ([6]; fibrin gel) was “caused hyperproliferation of HUVECs”.
